Reference: the supplement of paper PMC10307832

Assays:
Experiment in all cases: relative viability (nuclei count vs DMSO), 5 days (fraction); higher = more cells survive
XMD14-99 + Vorinostat = compound: CN1CCN(CC1)C2=CC(=C(C=C2)NC3=NC(=C(S3)C(=O)C4=C(C=CC=C4Cl)Cl)N)OC [XMD14-99] + O=C(CCCCCCC(=O)Nc1ccccc1)NO [Vorinostat] (partner 1 µM)
How it was run: (§1)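 Five library-drug doses in √10 steps were combined with a fixed anchor-drug dose, or a single drug was given alone, by pin tool to lung cancer cell lines in 1536-well plates the day after seeding. Nuclei were stained and counted after 5 days. Relative viability is the nuclei count in treated wells over that in vehicle wells, taken as the median of duplicate plates.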

AZD1208 + Luminespib = compound: N[C@@H]1CCCN(c2c(/C=C3\SC(=O)NC3=O)cccc2-c2ccccc2)C1 [AZD1208] + CCNC(=O)c1noc(-c2cc(C(C)C)c(O)cc2O)c1-c1ccc(CN2CCOCC2)cc1 [Luminespib] (partner 0.01 µM)
How it was run: as §1

AZD1208 + Olaparib = compound: N[C@@H]1CCCN(c2c(/C=C3\SC(=O)NC3=O)cccc2-c2ccccc2)C1 [AZD1208] + O=C(c1cc(Cc2n[nH]c(=O)c3ccccc23)ccc1F)N1CCN(C(=O)C2CC2)CC1 [Olaparib] (partner 8 µM)
How it was run: as §1

AZD1208 + Linsitinib = compound: N[C@@H]1CCCN(c2c(/C=C3\SC(=O)NC3=O)cccc2-c2ccccc2)C1 [AZD1208] + C[C@]1(O)C[C@@H](c2nc(-c3ccc4ccc(-c5ccccc5)nc4c3)c3c(N)nccn32)C1 [Linsitinib] (partner 1 µM)
How it was run: as §1

Cell Line	relative viability (XMD14-99 + Vorinostat; first compound 0.08 µM)	relative viability (XMD14-99 + Vorinostat; first compound 0.8 µM)	relative viability (XMD14-99 + Vorinostat; first compound 2.53 µM)	relative viability (XMD14-99 + Vorinostat; first compound 8 µM)	relative viability (AZD1208 + Luminespib; first compound 0.08 µM)	relative viability (AZD1208 + Luminespib; first compound 0.253 µM)	relative viability (AZD1208 + Luminespib; first compound 0.8 µM)	relative viability (AZD1208 + Luminespib; first compound 2.53 µM)	relative viability (AZD1208 + Luminespib; first compound 8 µM)	relative viability (AZD1208 + Olaparib; first compound 0.08 µM)	relative viability (AZD1208 + Olaparib; first compound 0.253 µM)	relative viability (AZD1208 + Olaparib; first compound 0.8 µM)	relative viability (AZD1208 + Olaparib; first compound 2.53 µM)	relative viability (AZD1208 + Olaparib; first compound 8 µM)	relative viability (AZD1208 + Linsitinib; first compound 0.08 µM)	relative viability (AZD1208 + Linsitinib; first compound 0.253 µM)	relative viability (AZD1208 + Linsitinib; first compound 0.8 µM)	relative viability (AZD1208 + Linsitinib; first compound 2.53 µM)	relative viability (AZD1208 + Linsitinib; first compound 8 µM)
NCI-H522	0.809	0.889	0.757	0.956	1.03	1.15	0.841	0.935	0.973	0.527	0.504	0.633	0.703	0.568	–	–	–	–	–
HCC-15	0.839	0.825	0.728	0.587	0.359	0.235	0.319	0.431	0.192	0.664	0.718	0.66	0.636	0.613	0.811	0.864	0.648	0.793	0.655
A-427	0.882	0.832	0.689	0.612	0.788	1	0.829	0.762	0.712	0.674	0.758	0.605	0.713	0.661	1.12	1.12	1	1.17	1.02
NCI-H23	0.641	0.581	0.604	0.464	0.238	0.218	–	0.202	0.24	0.321	0.324	0.292	0.298	0.279	0.453	0.539	0.462	0.434	0.461
NCI-H1734	0.803	0.785	0.799	0.581	0.18	0.197	0.187	0.159	0.168	0.679	0.575	0.554	0.544	0.449	0.728	0.807	0.795	0.791	0.603
NCI-H1993	0.595	0.889	0.793	0.714	0.522	0.561	0.692	0.566	0.523	0.777	0.973	0.911	0.968	0.736	–	0.722	0.731	0.739	0.654
PC-3 [JPC-3]	1.04	0.843	0.756	0.539	0.668	0.7	0.706	0.693	0.588	1.17	1.31	1.1	1.2	1.19	1.05	1.01	1.02	1.06	1
NCI-H1915	0.519	0.491	0.486	0.377	0.768	0.811	0.709	0.677	0.678	0.251	0.236	0.261	0.218	0.238	1.15	1.09	1.06	1.1	1.11
NCI-H1666	1.04	0.967	0.947	0.895	0.977	1.07	0.911	1	1.01	0.762	0.766	0.673	0.693	0.768	0.831	0.677	0.748	0.671	0.657
HCC-366	0.42	0.324	0.296	0.218	–	–	–	–	–	0.352	0.311	0.283	0.316	0.281	0.626	0.588	0.5	0.558	0.439
SK-MES-1	1.08	1.08	1.05	0.657	0.771	0.736	0.607	0.689	0.531	0.697	0.715	0.672	0.653	0.577	1.01	1.02	1.06	1.04	0.969
NCI-H727	1.25	0.989	1.06	0.994	0.362	0.384	0.431	0.42	0.458	0.793	0.556	0.917	0.743	0.734	0.29	0.219	0.264	0.259	0.225
RERF-LC-KJ	0.788	0.685	0.553	0.595	1.13	1.22	1.14	1.07	0.838	0.826	0.965	0.857	0.825	0.673	0.892	0.883	0.815	0.794	0.702
NCI-H1623	–	–	–	–	0.444	0.393	0.365	0.324	0.372	–	–	–	–	–	–	–	–	–	–
Calu-6	–	–	–	–	–	–	–	–	–	0.572	0.648	0.591	0.592	0.639	0.86	1.03	0.919	0.967	0.872
LC-2-ad	0.672	0.704	0.646	0.553	0.943	0.984	0.968	0.962	1.02	0.315	0.781	0.736	0.663	0.728	0.803	0.673	0.833	0.801	0.894
CAL-12T	0.685	0.894	0.627	0.613	0.363	0.527	0.185	0.434	0.258	0.81	0.737	0.633	0.711	0.797	0.721	1.13	0.761	0.86	0.909
SK-LU-1	0.735	0.74	0.813	0.479	0.186	0.198	0.194	0.226	0.198	0.446	0.419	0.367	0.448	0.436	1	1.21	1.07	1.21	0.795
NCI-H1650	0.554	0.558	0.678	0.427	0.208	0.151	0.188	0.211	0.204	0.712	0.787	0.839	0.856	0.796	–	–	–	–	–
